From ChEMBL document CHEMBL4715753, “Bridging computational modeling with amino acid replacements to investigate GHS-R1a-peptidomimetic recognition” (Eur J Med Chem, 2016) come the findings set out here.

In this assay the target is Growth hormone secretagogue receptor type 1 (Homo sapiens, UniProt Q92847). As to the kind of experiment: Displacement of [125I-His9]-ghrelin from GHS-R1a (unknown origin) expressed in human HEK293 cells incubated for 20 mins by gamma scintillation counting method. In kind it is cell-based. In general terms: In a radioligand displacement assay an active substance lowers the binding of a labelled ligand.

As usually defined, the IC50 is the concentration at which inhibition is half-maximal. High values mean weaker potency in that assay, low ones greater potency in that assay.

Sequence of Growth hormone secretagogue receptor type 1 (Q92847 whole entry): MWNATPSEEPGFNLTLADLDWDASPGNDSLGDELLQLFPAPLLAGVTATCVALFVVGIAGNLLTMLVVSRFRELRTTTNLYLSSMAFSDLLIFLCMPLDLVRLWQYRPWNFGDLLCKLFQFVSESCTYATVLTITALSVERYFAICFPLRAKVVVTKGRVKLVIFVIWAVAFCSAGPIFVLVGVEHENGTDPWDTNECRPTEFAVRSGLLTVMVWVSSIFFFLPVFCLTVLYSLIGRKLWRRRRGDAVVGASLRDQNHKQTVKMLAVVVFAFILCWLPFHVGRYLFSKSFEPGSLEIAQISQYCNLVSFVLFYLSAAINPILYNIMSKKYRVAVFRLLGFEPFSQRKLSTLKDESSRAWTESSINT

Compound `C[C@H](NC(=O)C1CCNCC1)C(=O)N[C@H](Cc1ccc2ccccc2c1)C(=O)N[C@@H](Cc1ccccc1)C(=O)N[C@@H](CCCCN)C(N)=O` yielded an IC50 of over 10000 nM.
For the compound `NCCCC[C@H](NC(=O)[C@H](Cc1ccncc1)NC(=O)[C@@H](Cc1ccc2ccccc2c1)NC(=O)[C@@H](Cc1ccc2ccccc2c1)NC(=O)C1CCNCC1)C(N)=O`, the IC50 was found to be 25 nM.
